Experiment [1] has as its target T1, NK2 receptor (SKLKB82#3 cells) (Bos taurus, UniProt P05363).
T1 construct: expressed in transfected cells; host or cells: SKLKB82#3 cells (mouse B82 fibroblasts, own knowledge)
T1 sequence (P05363 1-384): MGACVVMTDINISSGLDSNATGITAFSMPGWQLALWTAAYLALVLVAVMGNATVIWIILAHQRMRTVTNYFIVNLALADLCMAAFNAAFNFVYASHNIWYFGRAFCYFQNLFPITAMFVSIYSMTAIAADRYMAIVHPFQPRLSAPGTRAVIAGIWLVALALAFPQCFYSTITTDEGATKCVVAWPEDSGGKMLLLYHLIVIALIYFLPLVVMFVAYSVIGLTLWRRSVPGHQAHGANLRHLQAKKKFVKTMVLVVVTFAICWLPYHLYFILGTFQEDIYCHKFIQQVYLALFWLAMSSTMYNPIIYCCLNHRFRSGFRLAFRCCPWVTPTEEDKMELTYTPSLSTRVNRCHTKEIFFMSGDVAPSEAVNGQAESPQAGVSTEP
The experiment can be described thus: Antagonism of NK2 receptor mediated (NKA-induced) phosphatidylinositol turnover in SKLKB82#3 cells. The note with it: for NK-2 RECEPTOR -SLOPE: Schild analysis, NKA, mean (95% confidence limits). The class given is cell-based. Here is the method:
Tachykinin-mediated inositol phosphate accumulation was measured in UC11 or SKLKB82#3 cells in the presence and absence of NK1 or NK2 receptor antagonists, respectively. Tissues were incubated in Krebs-Henseleit buffer at 37° C. with 95% O2 -5% CO2 gassing. Tissues were then incubated with fresh buffer containing 100 μCi of myo-[2-^3 H(N)] inositol at 37° C. for 60 min with gentle gassing. After washing twice in 5 ml room temperature buffer containing 10 mM LiCl, tissues were incubated for 30 min at room temperature with a buffer change at 15 min. Buffer was removed and Krebs-Henseleit buffer (containing 40 μg/ml bacitracin, 4 μg/ml each of leupeptin and chymostatin, 0.1% bovine serum albumin and 10 mM each of thiorphan and LiCl) added. After 15 min, SP was added to UC11 cells or NKA to SKLKB82#3 cells at various concentrations to start the reaction. After incubation for 60 min at room temperature the reaction was terminated by addition of 930 μl chloroform:methanol (1:2 by volume) to each tube, followed by 310 μl chloroform and 310 μl doubly distilled water. Samples were vortexed, centrifuged, and 0.9 ml of the aqueous (top) phase removed and added to 2 ml ddH2 O. The mixture was vortexed and loaded onto a 50% Bio-Rad AG 1-X8 (formate form, 100-200 mesh) exchange column (Bio-Rad Laboratories, Hercules, Calif.). The columns were washed, in order, with: 1) 10 ml doubly distilled water, 2) 5 ml of 5 mM disodium tetraborate/60 mM sodium formate, and 3) 5 ml of 1M ammonium formate/0.1M formic acid. The third elution was collected and 1 ml counted in 7 ml scintillation fluid. A 50 μl aliquot of the organic (bottom) phase was removed, dried in a scintillation vial and counted in 7 ml scintillation fluid.
(§1) The ratio of DPM in the aqueous phase aliquot (total inositol phosphates) to the DPM in the 50 μl organic phase aliquot (total [^3 H]-inositol incorporated) was calculated for each sample. Data are expressed as a percent of agonist-induced accumulation of [^3 H]-inositol phosphates over basal levels. […] Dose-response graphs were constructed and the abilities of the test compounds to inhibit tachykinin-induced phosphatidyinositol turnover determined with the aid of a computer program. […] Data is expressed as percent stimulation of total inositol phosphate accumulation over basal levels and normalized to the maximum response produced by SP. […] Schild analysis is performed using dose response curves (such as those presented in FIGS. 1a and 1b) to obtain a value indicative of the Strength of a competitive antagonist and is expressed as the pA2, which is the negative logarithm of the molar concentration of antagonist which reduces the effect of a dose of agonist to one-half of that expected at the dose of agonist.

Experiment [2] has as its system NK1 and NK2 receptors. The experiment can be described thus: Antagonism of capsaicin aerosol-induced respiratory effects in conscious guinea pigs, intravenous. The note with it: for SRE NUMBER: coughs/gasps during 19 min capsaicin exposure, mean and SEM; for effect on capsaicin-induced respiratory effects (in words): i.v. The class given is in vivo, guinea pig. Here is the method: (§2) In vivo experiments were performed using male Duncan Hartley guinea pigs (250-350 g). Changes in conscious breathing patterns were monitored in four animals simultaneously using modified whole body plethysmography consisting of four small plexiglass boxes each connected to a reference box via Validyne DP 45-16 differential pressure transducers. The 4 boxes were equipped with an air supply line (also used for aerosol delivery) and an exhaust air line. Supply and exhaust lines were of the same length and narrow bore and arose from a common supply chamber and vented to a common exhaust chamber. This system was used to ensure that fluctuations in supply air and atmospheric pressure would remain in phase and be eliminated from the net signal by the differential pressure transducers. The analog pressure signals were digitalized via a Data Translation DT2821 A to D board. Data were collected at a rate of 100 samples/second/animal. Each cycle of pressure change was analyzed using the following parameters: rising and falling slope determined between minimum and maximum pressures, the ratio of rising over falling slope, and the magnitude of the change between initial trough pressure and peak cycle pressure. Using these values (and observing the animals) the pressure cycles were characterized into normal breaths, forced exhalations (apparent by abdominal heaving), significant respiratory events (SREs; usually coughs, less often sneezes or gasps which were characterized by transient, extremely large pressure increases which were distinguishable from noise) and movement/noise with a PCAT 286 running a System V UNIX operating system. Dyspnea was defined as a significant, sustained increase in plethysmograph pressure which was associated with an observable shift to labored breathing in the animal.
(§3) During the course of a typical experiment in which airway responsiveness to various bronchoconstricting agents was examined, aerosols were delivered for 19 min (0.33 ml/min) using a DeVilbiss Ultraneb 99 ultrasonic nebulizer and animals monitored during this time. Prior to nebulization, 1 min of resting breathing was collected to establish a baseline pressure. […] The vehicle for nebulization of all bronchoconstrictive agents was phosphate buffered saline (pH 7.4) which elicited no respiratory effects itself. Putative tachykinin antagonists were administered either (i.v.) 20 min prior to onset of aerosol exposure or orally 1 hour prior to onset (to guinea pigs after an overnight fast).
(§4) Capsaicin aerosol is known to promote release of the tachykinins SP and NKA from sensory nerves in the airways of guinea pigs which may then act upon NK1 and NK2 receptors, respectively to elicit respiratory effects.

The target of experiment [3] is T2, NK1 receptor (UC11 cells) (Homo sapiens, UniProt P25103).
T2 construct: endogenous in cells; host or cells: UC11 cells
The experiment can be described thus: Antagonism of NK1 receptor mediated (SP-induced) phosphatidylinositol turnover in UC11 cells. In kind it is cell-based. Here is the method: Tachykinin-mediated inositol phosphate accumulation was measured in UC11 or SKLKB82#3 cells in the presence and absence of NK1 or NK2 receptor antagonists, respectively. Tissues were incubated in Krebs-Henseleit buffer at 37° C. with 95% O2 -5% CO2 gassing. Tissues were then incubated with fresh buffer containing 100 μCi of myo-[2-^3 H(N)] inositol at 37° C. for 60 min with gentle gassing. After washing twice in 5 ml room temperature buffer containing 10 mM LiCl, tissues were incubated for 30 min at room temperature with a buffer change at 15 min. Buffer was removed and Krebs-Henseleit buffer (containing 40 μg/ml bacitracin, 4 μg/ml each of leupeptin and chymostatin, 0.1% bovine serum albumin and 10 mM each of thiorphan and LiCl) added. After 15 min, SP was added to UC11 cells or NKA to SKLKB82#3 cells at various concentrations to start the reaction. […] The third elution was collected and 1 ml counted in 7 ml scintillation fluid. A 50 μl aliquot of the organic (bottom) phase was removed, dried in a scintillation vial and counted in 7 ml scintillation fluid.
as §1

The test system of experiment [4] is NK1 and NK2 receptors. Briefly: Antagonism of capsaicin aerosol-induced respiratory effects in conscious guinea pigs, oral. In kind it is in vivo, guinea pig. Particulars: for SRE NUMBER: coughs/gasps during 19 min capsaicin exposure, mean and SEM; for effect on capsaicin aerosol effects (in words): oral. Here is the method: as §2, §3, §4
Experiment [5] concerns NK2 receptor. Briefly: Antagonism of NKA aerosol-induced respiratory effects in conscious guinea pigs. The class given is in vivo, guinea pig. The note with it: dose dependent. Here is the method: as §2
During the course of a typical experiment in which airway responsiveness to various bronchoconstricting agents was examined, aerosols were delivered for 19 min (0.33 ml/min) using a DeVilbiss Ultraneb 99 ultrasonic nebulizer and animals monitored during this time. […]

Experiment [6] addresses T3, NK1 receptors (Cavia porcellus, UniProt P30547).
T3 construct: measuring Evans Blue dye accumulation in guinea pig trachea; from tissue; host or cells: guinea pig trachea and primary bronchi, whole animal in vivo
Briefly: Antagonism of SP-induced plasma protein extravasation in guinea pig trachea. The class given is in vivo. The note with it: for relative potency as NK-1 receptor antagonists (in words): Example 3 versus its (+)-enantiomer Example 20A. Here is the method: SP-induced protein leakage through postcapillary venules was assessed by measuring Evans Blue dye accumulation in guinea pig trachea. Animals were anesthetized with pentobarbital then injected with Evans Blue dye (20 mg/kg, i.v., prepared in 0.9% NaCl solution). One minute after dye administration, the antagonist was administered (i.v.) followed by SP (0.3 nmole/kg, i.v.) and, after 5 min, excess dye removed from the circulation by transcardiac perfusion with 50 ml 0.9% NaCl solution. The trachea and primary bronchi were removed, blotted dry and weighed. Dye quantitation was performed spectrophotometrically ([…]) after extracting tissues in formamide for 24 hr at 50° C. Values were subtracted from background (dye only, no agonist). ED50 (dose of compound which inhibits SP-induced plasma protein extravasation by 50%) was calculated from linear regression analysis.

Each structure is given as a SMILES string. Where a name gives a salt, the structure may show the parent alone.

T3 sequence (P30547 whole entry): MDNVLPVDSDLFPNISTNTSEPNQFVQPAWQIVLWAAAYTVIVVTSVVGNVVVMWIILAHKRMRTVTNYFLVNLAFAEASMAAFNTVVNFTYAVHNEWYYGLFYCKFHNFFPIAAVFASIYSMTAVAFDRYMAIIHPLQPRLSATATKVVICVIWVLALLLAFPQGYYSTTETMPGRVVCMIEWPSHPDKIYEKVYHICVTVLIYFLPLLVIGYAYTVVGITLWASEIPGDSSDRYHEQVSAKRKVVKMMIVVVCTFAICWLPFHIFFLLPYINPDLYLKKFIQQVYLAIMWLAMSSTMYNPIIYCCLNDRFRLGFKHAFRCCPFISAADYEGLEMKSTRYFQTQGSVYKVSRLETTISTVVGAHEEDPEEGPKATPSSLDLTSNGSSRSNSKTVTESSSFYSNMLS
T2 sequence (P25103 whole entry): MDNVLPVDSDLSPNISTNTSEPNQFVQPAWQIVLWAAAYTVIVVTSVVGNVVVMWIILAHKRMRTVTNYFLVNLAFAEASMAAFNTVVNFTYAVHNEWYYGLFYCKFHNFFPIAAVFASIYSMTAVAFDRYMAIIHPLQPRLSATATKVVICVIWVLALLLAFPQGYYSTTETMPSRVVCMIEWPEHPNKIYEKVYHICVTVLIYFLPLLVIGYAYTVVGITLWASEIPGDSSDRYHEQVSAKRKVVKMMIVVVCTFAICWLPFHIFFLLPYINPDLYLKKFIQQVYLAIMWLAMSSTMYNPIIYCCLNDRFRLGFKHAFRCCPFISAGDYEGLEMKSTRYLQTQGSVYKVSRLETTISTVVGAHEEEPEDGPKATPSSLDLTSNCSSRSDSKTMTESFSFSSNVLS

Turning to `COc1cc(C(=O)N2CCC(CCN3CCC(C(N)=O)(c4ccccc4)CC3)(c3ccc(Cl)c(Cl)c3)C2)cc(OC)c1OC` (racemic) [Example 3A, 1-[2-[3-(3,4-dichloro-phenyl)-1-(3,4,5-trimethoxy-benzoyl)-pyrrolidin-3-yl]-ethyl]-4-phenyl-piperidine-4-carboxylic acid amide hydrochloride], the “NK-2 RECEPTOR -SLOPE” value in experiment [1] amounted to 0.73. Besides, the “SRE NUMBER” value is 8.50 ± 1.9 in experiment [2] (10 mg/kg i.v.), 4.6 ± 1.0 in experiment [4] (25 mg/kg oral), 2.8 ± 0.8 in experiment [4] (50 mg/kg oral) and 2.1 ± 0.5 in experiment [4] (100 mg/kg oral). In addition, the “effect on capsaicin-induced respiratory effects (in words)” value in experiment [2] is listed as “attenuate capsaicin-induced respiratory effects”. In addition, the “NK-1 RECEPTOR -SLOPE” value in experiment [3] (Schild analysis, SP, mean (95% confidence limits)) was determined as 0.90. In addition, the “effect on capsaicin aerosol effects (in words)” value in experiment [4] is “antagonize the effects of capsaicin aerosol”.
Turning to `COc1cc(C(=O)N2CCC(CCN3CCC(C(N)=O)(c4ccccc4)CC3)(c3ccc(Cl)c(Cl)c3)C2)cc(OC)c1OC` (single isomer, unassigned; (+)) [Example 20], the “NK-2 RECEPTOR -SLOPE” value in experiment [1] was 1.00.
Regarding `COc1cccc(OC)c1C(=O)N1CCC(CCN2CCC(C(N)=O)(c3ccccc3)CC2)(c2ccc(Cl)c(Cl)c2)C1` (stereo not shown) [Example 5A, 1-[2-[3-(3,4-dichloro-phenyl)-1-(2,6-dimethoxy-benzoyl)-pyrrolidin-3-yl]-ethyl]-4-phenyl-piperidine-4-carboxylic acid amide hydrochloride], the “effect on NKA aerosol respiratory effects (in words)” value in experiment [5] is recorded as “reduced the effects of NKA aerosol”.
As for `COc1cccc(OC)c1C(=O)N1CCC(CCN2CCC(C(N)=O)(c3ccccc3)CC2)(c2ccc(Cl)c(Cl)c2)C1` (stereo not shown) [Example 5], the “effect on capsaicin aerosol effects (in words)” value in experiment [4] is “antagonize the effects of capsaicin aerosol”.
In the case of `COc1cc(C(=O)N2CCC(CCN3CCC(C(N)=O)(c4ccccc4)CC3)(c3ccc(Cl)c(Cl)c3)C2)cc(OC)c1OC.Cl` (single isomer, unassigned; (+)) [Example 20A, (+)-1-[2-[3-(3,4-dichloro-phenyl)-1-(3,4,5-trimethoxy-benzoyl)-pyrrolidin-3-yl]-ethyl]-4-phenyl-piperidine-4-carboxylic acid amide hydrochloride], in experiment [5], the “effect on NKA aerosol respiratory effects (in words)” value is given as “reduced the effects of NKA aerosol”. Also, the “SRE NUMBER” value in experiment [2] (1 mg/kg i.v.) amounted to 9.9 ± 2.7; in experiment [2] (2.5 mg/kg i.v.) it was 8.3 ± 1.6; in experiment [2] (5 mg/kg i.v.), 4.4 ± 1.9; in experiment [2] (10 mg/kg i.v.) it was 3.3 ± 1.1. Besides, in experiment [2], the “effect on capsaicin-induced respiratory effects (in words)” value is on record as “attenuate capsaicin-induced respiratory effects”. For the same molecule, the “relative potency as NK-1 receptor antagonists (in words)” value in experiment [6] is “equipotent”.
On to `COc1cc(C(=O)N2CCC(CCN3CCC(C(N)=O)(c4ccccc4)CC3)(c3ccc(Cl)c(Cl)c3)C2)cc(OC)c1OC` (stereo not shown) [Example 3, 1-[2-[3-(3,4-dichloro-phenyl)-1-(3,4,5-trimethoxy-benzoyl)-pyrrolidin-3-yl]-ethyl]-4-phenyl-piperidine-4-carboxylic acid amide], for which, in experiment [1] (FIG. 1b), the “antagonism of NKA induced PI turnover (in words)” value was “dose related antagonism”. Moreover, the “agonist activity, PI turnover (in words)” value in experiment [1] (compound alone) and in experiment [3] (compound alone) was “no agonist activity” in each case. The “effect on NKA aerosol respiratory effects (in words)” value in experiment [5] is “reduced the effects of NKA aerosol”. For the same molecule, the “relative potency as NK-1 receptor antagonists (in words)” value in experiment [6] is on record as “equipotent”. Besides, the “antagonism of SP-induced plasma protein extravasation (in words)” value in experiment [6] (FIG. 2) is “dose related antagonism”. Further, the “antagonism of SP induced PI turnover (in words)” value in experiment [3] (FIG. 1a) was “dose related antagonism”.
